Measured values from patent publication US20210113492A1, “METHOD FOR INHIBITING PROLIFERATION AND METASTASIS OF CANCER CELLS BY USING NAPHTHOQUINONE DERIVATIVE” (National Tsing Hua University, priority 2019, published 2021).
≈ marks a conversion by molar mass, not a printed value.

Legend:
[1] = system: human non-small cell lung carcinoma cells (H1299); experiment: Mitochondrial morphology and distribution by immunofluorescence staining, H1299; assay type: cell-based; settings: 1 μM or 2.5 μM, 24 hours, anti-TOM20 staining
Method: (§1) The effects of isoplumbagin on mitochondrial morphology and distribution of OC3-IV2, U87, H1299 and PC3 cell lines were measured by immunofluorescence staining After OC3-IV2, U87, H1299, and PC3 cells were treated with DMSO, 1 μM, or 2.5 μM isoplumbagin for 24 hours, cells were fixed by 4% (v/v) paraformaldehyde and permeabilized by 0.1% (v/v) Triton X-100. Cells were incubated in blocking buffer containing 1% bovine serum albumin. After blocking, cells were incubated overnight with indicated primary antibodies against TOM20 (a mitochondria marker, sc-11415, Santa Cruz), and then incubated with Alexa Fluor 488-conjugated secondary antibodies (A11001, Invitrogen). Nucleus was stained with DAPI, actin was stained with rhodamine phalloidin (A12379, Invitrogen) and cells were mounted using Prolong Gold reagent (P36930, Invitrogen). 63 images were taken by LSM800 confocal microscopes (Zeiss).
(§2) FIGS. 5A-5D show the effect of isoplumbagin on mitochondrial morphogenesis and distribution of oral squamous cell carcinoma cells (OC3-IV2), human primary glioblastoma cells (U87), human non-small cell lung carcinoma cells (H1299) and human prostate cancer cells (PC3). Cells treated with either solvent control (DMSO) or isoplumbagin were determined by immunofluorescence staining using anti-TOM20 (mitochondria, green) antibody, rhodamine phalloidin (actin, red) and DAPI (nucleus, blue). […]

[2] = system: oral squamous cell carcinoma cells (OC3-IV2); experiment: MTT survival assay, OC3-IV2; assay type: cell-based; settings: Homo sapiens, 48 h, read-out: IC50, survival rate
Method: According to the present invention, human oral cancer cell line OC3-IV2 cells (Lin S C et al, J Oral Pathol Med. 2004 February; 33(2):79-86 and Lu Y C et al, Cancer Prey Res (Phila). 2012 April; 5(4):665-74) were cultured in a 1:1 ratio of Dulbecco's modified Eagle medium (DMEM; Invitrogen) and keratinocyte serum-free medium (KSFM; Invitrogen) containing 10% fetal bovine serum (FBS; Invitrogen, Carlsbad, Calif., USA), 1% L-glutamine (L-Gln, Invitrogen) and 1% antibiotic-antimycotic (AA, Invitrogen). Cells were maintained in a humidified atmosphere containing 5% CO2 at 37° C., and the culture medium was replaced every 2 days.
Isoplumbagin (AKOS006277326, acquired from AKos GmbH, Steinen, Germany) was dissolved in dimethyl sulfoxide (DMSO) and added to the medium, so that the final concentration of DMSO was less than 0.1%. The survival rate of isoplumbagin on OC3-IV2, U87, H1299 and PC3 cell lines was determined using the 3-(4,5-dimethylthiazol-2-yl)-2,5-diphenyltetrazolium bromide (MTT; Sigma-Aldrich) assays. 3×10^3 cells/well were seeded in 96-well plates. After incubation for 24 h, cells were treated with isoplumbagin at various concentrations (0, 1, 5, 10, 25, 50 and 100 μM) and incubated for a further 48 h. At the end of treatment, 10 μL 5 mg/mL MTT was added to each well. […] The absorbance of dissolved formazan was measured at 550 nm wavelengths by a spectrophotometer. […]

[3] = system: mitochondrial complex IV; experiment: Mitochondrial complex activity in permeabilized cells (Oroboros); assay type: cell-based, human; settings: OC3-IV2 permeabilized with 5 μM digitonin; 2.5 μM
Method: For the cell permeabilization and measurement of mitochondrial complex activity in permeabilized cells using Oroboros Instruments, 5×10^5 cells/mL treated with DMSO or 2.5 μM isoplumbagin suspended in 2 mL MiR05 buffer (110 mM D-sucrose, 0.5 mM EGTA, 3.0 mM MgCl2, 60 mM lactobionic acid, 10 mM KH2PO4, 20 mM taurine, 20 mM HEPES, 1 g/L BSA, pH 7.1) were added in O2k Oxygraph chambers. After cells had stabilized at routine respiration, plasma membrane permeabilization was performed by adding 5 μM digitonin and then O2 consumption rate was measured in response to sequential additions of 10 mM glutamate and 2 mM malate or 10 mM succinate, followed by 5 mM ADP, […], 0.5 μM FCCP, 1 μM rotenone, 1 μM antimycin A, 0.1 mM TMPD, 0.4 mM ascorbate and 5 mM NaN3.
FIGS. 6A and 6B show the inhibitory effect of isoplumbagin on mitochondrial function and complex IV activity of oral squamous cell carcinoma cells (OC3-IV2). Oxygen consumption rate (OCR) of OC3-IV2 cells treated with DMSO (as control) or 2.5 μM isoplumbagin were measured by Oroboros instruments (FIG. 6A). […] OC3-IV2 cells treated with DMSO or 2.5 μM isoplumbagin were permeabilized with 5 μM digitonin (Dig) and added indicated substrates and inhibitors, and then mitochondria complex I/IV activity were determined by Oroboros instruments (FIG. 6B). […]

[4] = system: human primary glioblastoma cells (U87); experiment: Mitochondrial morphology and distribution by immunofluorescence staining, U87; assay type: cell-based; settings: 1 μM or 2.5 μM, 24 hours, anti-TOM20 staining
Method: as §1, §2

CC1=CC(=O)c2cccc(O)c2C1=O [isoplumbagin, 5-hydroxy-3-methyl-1,4-naphthoquinone]
mitochondrial morphogenesis and distribution [1]: can alter the mitochondrial morphogenesis and distribution
IC50 [2]: 1.02 µg/mL (≈ 5.42 µM)
mitochondrial complex IV activity [3]: inhibiting mitochondrial complex IV activity
mitochondrial morphogenesis and distribution [4]: can alter the mitochondrial morphogenesis and distribution
